From ChEMBL document CHEMBL1157348, “The alkaloid conessine and analogues as potent histamine H3 receptor antagonists” (J Med Chem, 2008) come the findings set out here.

For data set [1], the target named is T1, Histamine H3 receptor (Rattus norvegicus, UniProt Q9QYN8). In words: Displacement of [3H]NAMH from rat full length histamine H3 receptor expressed in rat C6 cells. As to conditions: read-out: Ki. In kind it is cell-based. In general terms: Displacement assays read how much labelled ligand stays bound in the presence of the test substance.
For data set [2], the target named is T2, Histamine H3 receptor (Homo sapiens, UniProt Q9Y5N1). Put plainly: Displacement of [3H]NAMH from human full length histamine H3 receptor expressed in rat C6 cells. Format: cell-based.
The target of data set [3] is T1, Histamine H3 receptor. Put plainly: Displacement of [3H]NAMH from histamine H3 receptor in rat cortex.
Data set [4] can be described thus: Oral bioavailability in rat. Format: ADME, organism-based. As to conditions: in vivo.
For data set [5], the target named is T2, Histamine H3 receptor. Conditions: HEK293.
Data set [6] in a line: Displacement of [3H]LY278584 from 5HT3 receptor in rat frontal cortex. In kind it is tissue-based.
The target in data set [7] is Histamine H3 receptor (Rattus norvegicus) (UniProt Q9QYN8). Put plainly: Antagonist activity at rat full length histamine H3 receptor expressed in rat C6 cells assessed as inhibition of [35S]gammaGTP binding relative to control. Format: cell-based.
A short description of data set [8]: Displacement of [3H]LY278584 from 5HT2 receptor in rat frontal cortex. Format: tissue-based.
Data set [9] deals with Histamine H3 receptor (Cavia porcellus, UniProt Q9JI35). Put plainly: Antagonist activity at histamine H3 receptor in guinea pig ileum assessed as inhibition of (R)-alpha-methylhistamine-induced response.
The target of data set [10] is T2, Histamine H3 receptor. As to conditions: C6.
The target of data set [11] is T2, Histamine H3 receptor. Put plainly: Antagonist activity at human full length histamine H3 receptor expressed in HEK293 cells assessed as inhibition of (R)-alpha-methylhistamine-induced intracellular calcium release by FLIPR. In kind it is functional, cell-based. On the technique in general: Calcium flux is commonly read through the fluorescence of an indicator in the cells.

Data set [12] has as its target Histamine H3 receptor (Rattus norvegicus) (UniProt Q9QYN8). In words: Antagonist activity at rat full length histamine H3 receptor expressed in HEK cells assessed as inhibition of forskolin-induced cAMP accumulation by SPA. Conditions: HEK293. For orientation: Cyclic AMP is a second messenger, typically raised through Gs and lowered through Gi signalling.
For data set [13] the target is unchanged. In words: Antagonist activity at rat full length histamine H3 receptor assessed as inhibition of (R)-alpha-methylhistamine-induced intracellular calcium release by FLIPR. Format: functional, cell-based.
The nature of data set [14]: Displacement of [3H]LY278584 from 5HT1 receptor in rat frontal cortex. Format: tissue-based.
For data set [15], the target named is Histamine H3 receptor (Cavia porcellus) (UniProt Q9JI35). Conditions: Ileum.
Chain of Histamine H3 receptor (Cavia porcellus) (Q9JI35 whole entry): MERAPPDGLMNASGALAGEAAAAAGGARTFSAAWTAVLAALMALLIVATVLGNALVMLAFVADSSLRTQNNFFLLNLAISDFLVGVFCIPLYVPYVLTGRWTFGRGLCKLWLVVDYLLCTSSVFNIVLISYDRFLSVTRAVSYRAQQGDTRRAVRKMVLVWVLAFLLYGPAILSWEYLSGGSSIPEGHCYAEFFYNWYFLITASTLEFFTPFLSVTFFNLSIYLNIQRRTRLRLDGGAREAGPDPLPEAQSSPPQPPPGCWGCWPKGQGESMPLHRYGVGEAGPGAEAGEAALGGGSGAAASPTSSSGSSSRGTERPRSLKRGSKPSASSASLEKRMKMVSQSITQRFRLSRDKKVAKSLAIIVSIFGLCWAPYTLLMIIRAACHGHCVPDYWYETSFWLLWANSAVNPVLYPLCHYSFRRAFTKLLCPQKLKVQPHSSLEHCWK

T1 sequence (Q9QYN8 whole entry): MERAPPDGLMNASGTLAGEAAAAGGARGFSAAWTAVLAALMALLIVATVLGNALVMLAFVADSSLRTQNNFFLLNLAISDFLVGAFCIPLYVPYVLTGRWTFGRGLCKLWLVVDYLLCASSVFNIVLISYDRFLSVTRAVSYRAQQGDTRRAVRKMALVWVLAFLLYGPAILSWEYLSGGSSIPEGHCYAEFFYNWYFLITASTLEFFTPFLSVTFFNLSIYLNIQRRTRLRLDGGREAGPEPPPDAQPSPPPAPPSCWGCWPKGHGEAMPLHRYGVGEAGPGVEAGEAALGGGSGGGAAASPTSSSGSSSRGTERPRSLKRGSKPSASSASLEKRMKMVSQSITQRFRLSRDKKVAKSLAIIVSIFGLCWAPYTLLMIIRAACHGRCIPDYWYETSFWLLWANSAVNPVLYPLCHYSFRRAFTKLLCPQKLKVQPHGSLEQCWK
Chain of Histamine H3 receptor (Rattus norvegicus) (Q9QYN8 whole entry): as above
T2 sequence (Q9Y5N1 whole entry): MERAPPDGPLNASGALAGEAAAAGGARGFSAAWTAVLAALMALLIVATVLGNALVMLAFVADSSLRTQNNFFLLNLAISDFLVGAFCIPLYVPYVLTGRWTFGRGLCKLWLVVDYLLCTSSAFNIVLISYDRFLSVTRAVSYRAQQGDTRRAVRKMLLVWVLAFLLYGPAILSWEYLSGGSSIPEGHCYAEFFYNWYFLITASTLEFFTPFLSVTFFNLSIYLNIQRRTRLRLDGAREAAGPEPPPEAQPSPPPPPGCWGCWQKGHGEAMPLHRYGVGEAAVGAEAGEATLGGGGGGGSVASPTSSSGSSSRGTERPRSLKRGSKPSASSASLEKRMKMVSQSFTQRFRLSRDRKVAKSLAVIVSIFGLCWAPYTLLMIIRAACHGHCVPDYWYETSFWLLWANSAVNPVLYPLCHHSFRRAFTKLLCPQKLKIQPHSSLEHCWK
Chain of Histamine H3 receptor (Cavia porcellus, UniProt Q9JI35) (Q9JI35 whole entry): as the sequence (Q9JI35 whole entry) above

Consider `CN1C[C@]23CC[C@H]4[C@@H](CC=C5C[C@@H](N(C)C)CC[C@@]54C)[C@@H]2CC[C@@H]3C1=O`, for which the results for the Ki on Histamine H3 receptor [1] and at Histamine H3 receptor [2] were 1000 nM and 543 nM, respectively.
On to `C[C@H]1[C@H]2CC[C@H]3[C@@H]4CC=C5C[C@@H](N(C)c6ccc(C#N)cc6)CC[C@]5(C)[C@H]4CC[C@]23CN1C`, for which the results for the Ki at Histamine H3 receptor [3] (read-out: Ki) and on Histamine H3 receptor [2] were 24 nM and 1.66 nM, respectively.
On to `C[C@H]1[C@H]2CC[C@H]3[C@@H]4CC=C5C[C@@H](N(C)C(=O)c6ccc(C#N)cc6)CC[C@]5(C)[C@H]4CC[C@]23CN1C`, for which the Ki at Histamine H3 receptor [3] (read-out: Ki) is 195 nM; on Histamine H3 receptor [2] it was 39.8 nM.
With `C[C@H]1[C@H]2CC[C@H]3[C@@H]4CC=C5C[C@@H](N(C)C(=O)Cc6cccs6)CC[C@]5(C)[C@H]4CC[C@]23CN1C`, the Ki on Histamine H3 receptor [3] (read-out: Ki) came out at 11.2 nM; on Histamine H3 receptor [2] it was 3.31 nM. The bioavailability in data set [4] was 4.5%.
In the case of `C[C@H]1[C@H]2CC[C@H]3[C@@H]4CC=C5C[C@@H](N(C)C(=O)c6ccccc6)CC[C@]5(C)[C@H]4CC[C@]23CN1C`, the Ki was 38 nM on Histamine H3 receptor [3] (read-out: Ki) and 12.3 nM on Histamine H3 receptor [2].
Consider `CC[C@@H](C)[C@@H](N)C(=O)N(C)[C@H]1CC[C@@]2(C)C(=CC[C@H]3[C@@H]4CC[C@@H]5[C@H](C)N(C)C[C@@]54CC[C@@H]32)C1`, for which the Ki is 2.88 nM at Histamine H3 receptor [3] (read-out: Ki) and 0.37 nM on Histamine H3 receptor [2].
`S=C(NC1CCCCC1)N1CCC(c2cnc[nH]2)CC1` [THIOPERAMIDE]: the pKb came out at 7.39 on Histamine H3 receptor [5]; 8.13 in data set [7]; 6.1 at Histamine H3 receptor [10]; 6.82 on Histamine H3 receptor [11]; 7.61 in data set [12]; 9.11 in data set [13]. Moreover, the pKi turned out to be 5.64 in data set [6], 5.25 in [8] and 4.95 in data set [14]. Besides, the Ki at Histamine H3 receptor [3] (read-out: pKi (converted)) was 7.08 nM. In addition, the Kb at Histamine H3 receptor [9] is 3.63 nM.
As to `O=C(c1ccc(OCCCc2cnc[nH]2)cc1)C1CC1` [CIPROXIFAN], the Ki at Histamine H3 receptor [3] (read-out: pKi (converted)) was 0.631 nM.
With `C[C@H]1[C@H]2CC[C@H]3[C@@H]4CC=C5C[C@@H](N(C)C(=O)OCC(Cl)(Cl)Cl)CC[C@]5(C)[C@H]4CC[C@]23CN1C`, the results for the Ki at Histamine H3 receptor [1] and on Histamine H3 receptor [2] were 7.91 nM and 19.7 nM, respectively.
`C[C@H]1[C@H]2CC[C@H]3[C@@H]4CC=C5C[C@@H](N(C)S(=O)(=O)c6ccc(C#N)cc6)CC[C@]5(C)[C@H]4CC[C@]23CN1C`: the Ki at Histamine H3 receptor [3] (read-out: Ki) was determined as 138 nM; on Histamine H3 receptor [2], 19 nM.
Turning to `CC(=O)N[C@@H](Cc1ccccc1)C(=O)N(C)[C@H]1CC[C@@]2(C)C(=CC[C@H]3[C@@H]4CC[C@@H]5[C@H](C)N(C)C[C@@]54CC[C@@H]32)C1`, the Ki at Histamine H3 receptor [3] (read-out: Ki) was 2.29 nM; on Histamine H3 receptor [2], 1.15 nM.
On to `CCS(=O)(=O)N(C)[C@H]1CC[C@@]2(C)C(=CC[C@H]3[C@@H]4CC[C@@H]5[C@H](C)N(C)C[C@@]54CC[C@@H]32)C1`, for which the results for the Ki on Histamine H3 receptor [3] (read-out: Ki) and on Histamine H3 receptor [2] were 141 nM and 23.4 nM, respectively.
For `C[C@H]1[C@H]2CC[C@H]3[C@@H]4CC=C5C[C@@H](N(C)C(=O)c6ccncc6)CC[C@]5(C)[C@H]4CC[C@]23CN1C`, the Ki at Histamine H3 receptor [3] (read-out: Ki) turned out to be 155 nM; on Histamine H3 receptor [2], 16.2 nM.
For the compound `CC(=O)N(C)[C@H]1CC[C@@]2(C)C(=CC[C@H]3[C@@H]4CC[C@@H]5[C@H](C)N(C)C[C@@]54CC[C@@H]32)C1`, the Ki was found to be 257 nM at Histamine H3 receptor [3] (read-out: Ki) and 110 nM at Histamine H3 receptor [2].
For `CN(C)CCCOc1c(Br)cc(CCN(C)C)cc1Br` [APLYSAMINE], the 50% inhibitory concentration (IC50) on Histamine H3 receptor [9] worked out at 500 nM.
In the case of `C[C@H]1[C@H]2CC[C@H]3[C@@H]4CC=C5C[C@@H](N(C)S(=O)(=O)c6ccccc6)CC[C@]5(C)[C@H]4CC[C@]23CN1C`, the figures for the Ki on Histamine H3 receptor [3] (read-out: Ki) and on Histamine H3 receptor [2] were 61.7 nM and 7.76 nM, respectively.
The like results for `COC(=O)N(C)[C@H]1CC[C@@]2(C)C(=CC[C@H]3[C@@H]4CC[C@@H]5[C@H](C)N(C)C[C@@]54CC[C@@H]32)C1` were, in that order, 257 nM and 60.3 nM.
On to `C[C@H]1[C@H]2CC[C@H]3[C@@H]4CC=C5C[C@@H](N(C)C(=O)N(C)C)CC[C@]5(C)[C@H]4CC[C@]23CN1C`, for which the results for the Ki at Histamine H3 receptor [3] (read-out: Ki) and at Histamine H3 receptor [2] were 295 nM and 50.1 nM, respectively.
Consider `NCCC(=O)NCCc1c[nH]cn1` [CARCININE], for which the Ki at Histamine H3 receptor [1] is 294 nM.
On to `C[C@H]1[C@H]2CC[C@H]3[C@@H]4CC=C5C[C@@H](N(C)C(=O)C6CC6)CC[C@]5(C)[C@H]4CC[C@]23CN1C`, for which the Ki at Histamine H3 receptor [3] (read-out: Ki) was determined as 380 nM; on Histamine H3 receptor [2], 60.3 nM.
Take `CC[C@H](C)[C@H](N)C(=O)N(C)[C@H]1CC[C@@]2(C)C(=CC[C@H]3[C@@H]4CC[C@@H]5[C@H](C)N(C)C[C@@]54CC[C@@H]32)C1`: the results for the Ki at Histamine H3 receptor [3] (read-out: Ki) and on Histamine H3 receptor [2] were 0.49 nM and 0.22 nM, respectively.
On to `C[C@H]1[C@H]2CC[C@H]3[C@@H]4CC=C5C[C@@H](N(C)S(=O)(=O)N(C)C)CC[C@]5(C)[C@H]4CC[C@]23CN1C`, for which the results for the Ki at Histamine H3 receptor [3] (read-out: Ki) and on Histamine H3 receptor [2] were 240 nM and 30.9 nM, respectively.
With `COc1ccc(C/C(=N\O)C(=O)NCCc2c[nH]cn2)cc1Br` [VERONGAMINE], the IC50 on Histamine H3 receptor [9] turned out to be 830 nM.
In the case of `CC(=O)N[C@@H](CC(C)C)C(=O)N(C)[C@H]1CC[C@@]2(C)C(=CC[C@H]3[C@@H]4CC[C@@H]5[C@H](C)N(C)C[C@@]54CC[C@@H]32)C1`, the Ki on Histamine H3 receptor [3] (read-out: Ki) came out at 6.76 nM; on Histamine H3 receptor [2] it was 1.62 nM.
Regarding `O=C(c1ccc(OCCCc2c[nH]cn2)cc1)C1CC1` [CIPROXIFAN], the pKb at Histamine H3 receptor [5] came out at 7.07; in data set [7], 8.78; in data set [15], 8.12; at Histamine H3 receptor [10], 6.59; on Histamine H3 receptor [11], 6.84; in data set [12], 9.2. Moreover, the pKb in data set [13] amounted to 9.42. Moreover, the pKi in [6] was 6.52; in data set [8] it was 4.73; in data set [14], 4.78.

Broadly, the bioavailability is the share of a dose that reaches the circulation, judged against a reference dose that is usually intravenous. Usually pKb stands for the negative decadic logarithm of the Kb, by convention in mol/L. The pKi is the negative decadic logarithm of the Ki, by convention in mol/L. A low value points to a large Ki. As a reminder, the Kb is the affinity of an antagonist, worked out from how it opposes an agonist. By IC50 is commonly meant the point on the concentration scale where inhibition reaches its midpoint.
